We go through two compounds from publication PMC6201879, “N-substituted phenylbenzamides of the niclosamide chemotype attenuate obesity related changes in high fat diet fed mice” (PLoS ONE, 2018).

One assay has as its system PH5CH8 liver cells. In words: High-throughput hepatic de novo lipogenesis (DNL) assay, high content imaging of steatotic phenotype. Format: cell-based, human. To be noted: for IC50: Homo sapiens.
Assay [1] concerns HEK293 cells stably transduced with the human OCT3 transporter. Kind of assay: Cellular oxygen consumption rate (OCR), MitoXpress Xtra. To be noted: HEK293 cells expressing human OCT3; for change in respiration / oxygen consumption rate (OCR): compared to DMSO control, 2 hours; for concentration dependence of OCR change: four concentrations. The format is cell-based. Here is the method:
Oxygen consumption rate experiments were performed by ZenBio, Inc (RTP, NC). HEK293 cells stably transduced with the human OCT3 transporter were plated in black-walled microclear plates (Greiner-BioOne) at 60,000 cells per well in growth medium. Cells were incubated overnight to allow attachment before growth medium was removed and replaced with 150μL of assay medium containing compound dilutions. Four concentrations of each compound were prepared and transferred to the empty wells. Control wells contained assay medium only or assay medium containing […] (FCCP) at 1μM. Ten μL of MitoXpress Xtra reagent was added to each test well and 100μL of pre-warmed mineral oil was overlaid in each well to create a seal. The plates were immediately read on a FLUOstar Omega (BMG) using dual read Time Resolved Fluorescence (TR-F) for 2 hours, with measurements taken every 2 minutes using 340nm and 650nm as excitation and emission wavelengths respectively. For lifetime analysis, two measurements per well were taken: 1) delay of 30μs, with a window of 30μs; and 2) delay of 70μs with a window of 30μs. Background TRF values were subtracted from all readings. A ratiometric analysis was performed to determine changes in the Lifetime fluorescence signal: Lifetime (μs)[T] = (D2-D1)/ln(W1/W2), where D is delay; W is fluorescence window value at each time point. Lifetime slopes were calculated using each Lifetime measurement over time. Data are presented as mean ± standard error (SE). The differences between the control (DMSO) and compound treated wells were analyzed using the Student’s t-test. A value of p≤0.05 was considered statistically significant. […]

Assay [2] concerns phospho-AMPK Thr-172 (p-AMPK). In words: Western blot of phospho-AMPK Thr-172 in HEK293T cells. Format: cell-based, human. Here is the method: AMPK is a metabolic sensor that maintains cellular energy supply. As validation of these changes in lipid metabolism and cellular respiration we evaluated phospho-AMPK Thr-172 (p-AMPK) levels by Western blot in HEK293 cells treated with the phenylbenzamide derivatives. Compounds were screened at 1 and 10μM using the known uncouplers niclosamide and FCCP as positive controls (Fig 4A). […] We concluded that compounds that had little effect on oxygen consumption rates also had little effect on phosphorylation of AMPK.

Assay [3] has as its system phospho-S6 ribosomal protein. In words: Western blot of phospho-S6 ribosomal protein in HEK293T cells. The format is cell-based, human.
Assay [4] can be described thus: Body weight changes in HFD-fed mice. The format is in vivo, mouse. Here is the method: We next measured body weight changes in HFD-fed animals prior to treatment with niclosamide or phenylbenzamide derivatives and after 12 days, prior to sacrifice. During this time, all animals (including sham) lost some weight.
20-week old animals were treated IP with 500199 at 10 or 25mg/kg by IP over a time-course of 9 days. At day 0, 3, 6 and 9 animals were weighed and tissue samples were collected for standard histological scoring of hepatic steatosis and automated quantitative histomorphometric scoring.

For a further assay, the system named is p-AMPK Thr-172. Kind of assay: Western blot of p-AMPK Thr-172 in liver of HFD-fed mice. To be noted: HFD fed-DIO mice; 10mg/kg for 12 days; vs sham. On the technique in general: In western blotting, separated proteins are transferred to a membrane and probed.
Assay [5] concerns fatty acid synthase (FAS). In words: Western blot of fatty acid synthase in liver of HFD-fed mice. To be noted: HFD fed-DIO mice; 10mg/kg for 12 days; vs sham.
Assay [6] concerns carbonic anhydrase-III (CAIII). Kind of assay: Western blot of carbonic anhydrase III in liver of HFD-fed mice. The note with it: HFD fed-DIO mice; 10mg/kg for 12 days; vs sham.
Assay [7] relates to Phosphorylated AMPK (Thr-172). In words: High-throughput phosphorylated AMPK (Thr-172) TR-FRET assay in HepG2 cells. Format: cell-based, human. The note with it: HepG2 TR-FRET dose response between 0.625 and 10 μM, 4 hours; also Western blot. How it is done: Phosphorylated AMPK (Thr-172) TR-FRET Assay Kit was purchased from CisBio (Bedford MA). HepG2 [HB-8065] cells were trypsinized, harvested and counted using Countess II FL automated cell counter (Thermo Fisher Scientific). Cells were then seeded in Poly-D-Lysine coated 96-well black optical plates at a concentration of 10,000 cells per well in 50μL growth medium. After 24-hours, the media was removed and replaced with 50μL of fresh growth media containing compounds. Five concentrations of each compound were prepared, ranging from 10 to 0.625 μM and applied to columns 2–11 of the cell plate. Control wells contained DMSO (column 1-minimum response control) or 500199 (column 12-maximum response control). The final DMSO concentration was 0.45%. Cells were cultured for 4 hours before cells were lysed in 50μL of lysis buffer for 30 minutes at room temperature according to assays protocol. Following lysis, 16μL of lysate was transferred to white 384 well small volume assay plate and 4μL of antibody dyes were added per assay protocol.
Following overnight incubation, quantitation was performed on a PHERAstar (BMG), using the HTRF protocol with an excitation wavelength of 337nm and emission wavelengths of 665nm and 620nm. The ratio between emission spectra (665/620) was assessed for each well individually and averaged for triplicate samples. Data are presented as mean ratio ± SE. The differences between the control (DMSO) and the compound treated wells were analyzed using two-way ANOVA and Dunnett’s post hoc test. A value of p<0.05 was considered to be significant.
Fig 5 Validation of AMPK pathway activation by phenylbenzamide derivatives in HepG2 cells. A) Cells were seeded at 10,000 cells per well 24 hours prior to treating cells with indicated concentration of compound or DMSO (CTL) for 4 hours. 16μL of cell lysate was incubated with HTRF phospho-AMPK detection reagents and fluorescence emission read at 665nm and 620nm using a PHERAstar platereader. The mean and standard deviation of the HTRF Ratio from three replicate wells is shown. The unstimulated (DMSO) and positive controls lysates are shown in green and red respectively.

The mark [8] stands for this setting: PH5CH8 liver cells, 10-point dose response between 1μM and 1.9nM, read-out: IC50 (uM), inhibition of steatotic phenotype in DNL assay.
[9] abbreviates: S1 Table, SAR for N-Substituted Phenylbenzamides, read-out: IC50.
Setting [10] is: S1 Table, SAR for N-Substituted Phenylbenzamides.

Molecules are shown by their SMILES. Like-named read-outs stand apart in the source and are kept apart here.

For the compound `COC(=O)c1ccc(NC(=O)c2cc(C(C)(C)C)ccc2O)c(Cl)c1` [Compound 500199, Methyl 4-[(5-tert-butyl-2-hydroxybenzene)amido]-3-chlorobenzoate], the IC50 (usually the concentration at which inhibition is half-maximal) in the assay with PH5CH8 liver cells (setting [8]) came out at 0.06 µM. Further, the IC50 with PH5CH8 liver cells (setting [9]) came to 0.066 µM. The Active/Inactive result in the assay with PH5CH8 liver cells (setting [10]) is given as “Active”. Besides, in assay [1], the “change in respiration / oxygen consumption rate (OCR)” value is given as “significant changes” and the “concentration dependence of OCR change” value is “dose dependent increase in OCR”. Also, the “phosphorylation of AMPK (p-AMPK Thr-172) by Western blot” value in [2] (1 and 10μM, negatives re-screened at 5 and 20 μM, 3 hours) is on record as “stimulated phosphorylation of AMPK”. Besides, the “concentration at which phosphorylation of AMPK peaks” value in assay [2] (Western blot) was found to be 5 µM. Moreover, the phospho-S6 ribosomal protein entry in assay [3] is listed as “inversely regulated”. The “body weight change vs sham” value in assay [4] (10mg/kg I.P daily for 12 days) is recorded as “lost significantly more weight”. In addition, the “body weight vs sham” value in [4] (10 or 25mg/kg IP over 9 days) was “no statistically significant difference”. In the assay with p-AMPK Thr-172, the “phosphorylation of AMPK at Thr-172 in liver” value is “stimulated phosphorylation of AMPK at Thr-172”. Also, the “FAS protein levels in liver” value in assay [5] is “reduced”. The “CAIII protein levels in liver” value in assay [6] is on record as “reduced”.

Take `COC(=O)c1ccc(NC(=O)c2cc(C(F)(F)F)ccc2O)c(C)c1` [Compound 600655, Methyl 4-(2-hydroxy-5-[trifluoromethyl]benzamido)-3-methylbenzoate]: the IC50 with PH5CH8 liver cells (setting [8]) is 0.03 µM; in the assay with PH5CH8 liver cells (setting [9]) it was 0.00025 µM. Moreover, the Active/Inactive entry in the assay on PH5CH8 liver cells (setting [10]) is “Active”. The “change in respiration / oxygen consumption rate (OCR)” value in [1] was “significant changes”. Moreover, the “concentration dependence of OCR change” value in assay [1] is given as “dose dependent increase in OCR”. The “phosphorylation of AMPK (Figs 5 and 4D)” value in [7] is listed as “stimulated phosphorylation of AMPK”.
